In PubChem BioAssay AID248 (DTP/NCI, 2004):
“And” between values parts separate entries of the source, which are not always exact repeats. Identical values can stand only once. Inconclusive results and toxic doses are left out. Cut-off read from the data, not from the text of the source: active = T/C of 150% or more; inactive = T/C below 125%.

Test system: L1210 leukemia ip in BDF1 mice, survival T/C
Experiment: NCI In Vivo Anticancer Drug Screen. Data for tumor model L1210 Leukemia (intraperitoneal) in B6D2F1 (BDF1) mice
Conditions: endpoint: mean survival time, higher = longer survival
Procedure, shortened: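 Transplantable tumor model; survival measured in treated vs vehicle control mice. Value = treated/control.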

[1] = dose: 75.0 mg/kg/injection, schedule: Q01DX001 (ip), vehicle: carboxymethylcellulose (CMC)
[2] = dose: 100.0 mg/kg/injection, schedule: Q01DX009 (ip), vehicle: saline with Tween-80
[3] = dose: 200.0 mg/kg/injection, schedule: Q01DX009 (ip), vehicle: saline with Tween-80
[4] = dose: 100.0 mg/kg/injection, schedule: Q01DX009 (ip), vehicle: saline
[5] = dose: 100.0 mg/kg/injection, schedule: Q04DX003 (ip), vehicle: saline
[6] = dose: 200.0 mg/kg/injection, schedule: Q01DX009 (ip), vehicle: saline
[7] = dose: 200.0 mg/kg/injection, schedule: Q04DX003 (ip), vehicle: saline
[8] = dose: 400.0 mg/kg/injection, schedule: Q04DX003 (ip), vehicle: saline
[9] = dose: 100.0 mg/kg/injection, schedule: Q01DX001 (ip), vehicle: saline
[10] = dose: 200.0 mg/kg/injection, schedule: Q01DX001 (ip), vehicle: saline
[11] = dose: 400.0 mg/kg/injection, schedule: Q01DX001 (ip), vehicle: saline
[12] = dose: 400.0 mg/kg/injection, schedule: Q01DX009 (ip), vehicle: saline with Tween-80
[13] = dose: 100.0 mg/kg/injection, schedule: Q01DX009 (ip), vehicle: Klucel (hydroxypropylcellulose) (HPC)
[14] = dose: 100.0 mg/kg/injection, schedule: Q04DX003 (ip), vehicle: Klucel (hydroxypropylcellulose) (HPC)
[15] = dose: 200.0 mg/kg/injection, schedule: Q01DX009 (ip), vehicle: Klucel (hydroxypropylcellulose) (HPC)
[16] = dose: 200.0 mg/kg/injection, schedule: Q04DX003 (ip), vehicle: Klucel (hydroxypropylcellulose) (HPC)
[17] = dose: 400.0 mg/kg/injection, schedule: Q01DX009 (ip), vehicle: Klucel (hydroxypropylcellulose) (HPC)
[18] = dose: 400.0 mg/kg/injection, schedule: Q04DX003 (ip), vehicle: Klucel (hydroxypropylcellulose) (HPC)
[19] = dose: 100.0 mg/kg/injection, schedule: Q01DX001 (ip), vehicle: carboxymethylcellulose (CMC)
[20] = dose: 200.0 mg/kg/injection, schedule: Q01DX001 (ip), vehicle: carboxymethylcellulose (CMC)
[21] = dose: 400.0 mg/kg/injection, schedule: Q01DX001 (ip), vehicle: carboxymethylcellulose (CMC)

Measured: T/C

O=C(O)C(Cc1cnc[nH]1)Nc1nc(NC(Cc2cnc[nH]2)C(=O)O)[nH]c(=O)n1 (configuration not stated)
inactive: dose: 6.25 mg/kg/injection, schedule: Q01DX009 (ip), vehicle: Klucel (hydroxypropylcellulose) (HPC) 101 % of control | dose: 12.5 mg/kg/injection, schedule: Q01DX009 (ip), vehicle: Klucel (hydroxypropylcellulose) (HPC) 108 % of control | dose: 25.0 mg/kg/injection, schedule: Q01DX009 (ip), vehicle: Klucel (hydroxypropylcellulose) (HPC) 115 % of control

CCCCCCCCC1OC1CCCCCCCC(=O)N1CCN(C)CC1 (configuration not stated)
inactive: [1] 92 % of control | dose: 150.0 mg/kg/injection, schedule: Q01DX001 (ip), vehicle: carboxymethylcellulose (CMC) 97 % of control | dose: 300.0 mg/kg/injection, schedule: Q01DX001 (ip), vehicle: carboxymethylcellulose (CMC) 91 % of control

OCCC=C(c1ccccc1)c1ccccc1
inactive: dose: 50.0 mg/kg/injection, schedule: Q01DX009 (ip), vehicle: saline with Tween-80 107 % of control | [2] 100 % of control | [3] 104 % of control

C[N+]1(C)C2CCC1CC(=NO)C2
inactive: dose: 75.0 mg/kg/injection, schedule: Q01DX001 (ip), vehicle: saline 104 % of control

COC(=O)C1(C)CCC(c2ccc(C)cc2)=C(CC(=O)O)C1 (configuration not stated)
inactive: [4] 115 % of control | [5] 100 % of control | [6] 97 % of control | [7] 96 % of control | dose: 400.0 mg/kg/injection, schedule: Q01DX009 (ip), vehicle: saline 95 % of control | [8] 115 % of control

Cc1cc(=O)[nH]c(N2CCCCC2)n1
inactive: [9] 111 % of control | [10] 95 % of control | [11] 101 % of control

COC(=O)/C=C/C(=O)O
inactive: [1] 86 % of control

CC/C=C(\CC(=O)OCC)C(=O)OCC
inactive: [2] 101 % of control | [3] 96 % of control | [12] 92 % of control

CCOC(=O)C(C#N)(CC)C1=CCCCC1 (configuration not stated)
inactive: [13] 106 % of control | [14] 97 % of control | [15] 93 % of control | [16] 97 % of control | [17] 97 % of control | [18] 102 % of control

N/C(Cc1ccc(Cl)cc1)=N/O
inactive: [14] 104 % of control | [16] 102 % of control

CCCCCCCCCCSC#N
inactive: dose: 5.0 mg/kg/injection, schedule: Q01DX001 (ip), vehicle: saline 103 % of control | dose: 10.0 mg/kg/injection, schedule: Q01DX001 (ip), vehicle: saline 97 % of control | dose: 20.0 mg/kg/injection, schedule: Q01DX001 (ip), vehicle: saline 105 % of control | dose: 20.0 mg/kg/injection, schedule: Q01DX009 (ip), vehicle: saline 111 % of control | dose: 20.0 mg/kg/injection, schedule: Q04DX003 (ip), vehicle: saline 100 % of control | dose: 40.0 mg/kg/injection, schedule: Q01DX001 (ip), vehicle: saline 97 % of control | dose: 40.0 mg/kg/injection, schedule: Q01DX009 (ip), vehicle: saline 106 % of control | dose: 40.0 mg/kg/injection, schedule: Q04DX003 (ip), vehicle: saline 100 % of control | dose: 80.0 mg/kg/injection, schedule: Q01DX009 (ip), vehicle: saline 100 % of control | dose: 80.0 mg/kg/injection, schedule: Q04DX003 (ip), vehicle: saline 101 % of control

CC1C(=O)OCC1C(c1ccccc1)(c1ccccc1)c1ccccc1 (configuration not stated)
inactive: dose: 100.0 mg/kg/injection, schedule: Q04DX002 (ip), vehicle: gum acacia 100 % of control | dose: 200.0 mg/kg/injection, schedule: Q04DX002 (ip), vehicle: gum acacia 103 % of control | dose: 400.0 mg/kg/injection, schedule: Q04DX002 (ip), vehicle: gum acacia 89 % of control

CCCCCCCCCCCC[N+](C)(C)C.C[As](C)(=O)[O-]
inactive: dose: 6.25 mg/kg/injection, schedule: Q01DX009 (ip), vehicle: saline 101 % of control | dose: 12.5 mg/kg/injection, schedule: Q01DX009 (ip), vehicle: saline 101 % of control | dose: 25.0 mg/kg/injection, schedule: Q01DX009 (ip), vehicle: saline 97 % of control and 101 % of control

Cn1cnc([N+](=O)[O-])c1SC#N
inactive: dose: 15.0 mg/kg/injection, schedule: Q01DX001 (ip), vehicle: carboxymethylcellulose (CMC) 100 % of control

N#Cc1c(C#N)c(N)n(N)c1N
inactive: dose: 200.0 mg/kg/injection, schedule: Q04DX002 (ip), vehicle: Klucel (hydroxypropylcellulose) (HPC) 114 % of control

COc1ccc2c(c1)C13CCCC(C)(C(=O)NC1)C3CC2 (configuration not stated)
inactive: [19] 93 % of control | [20] 95 % of control | [21] 101 % of control

C#CCCCOC(=O)Nc1ccccc1
inactive: dose: 50.0 mg/kg/injection, schedule: Q01DX009 (ip), vehicle: Klucel (hydroxypropylcellulose) (HPC) 97 % of control | [13] 103 % of control | [15] 89 % of control

CC1(C)N=C(N)N=C(N)N1c1cccc(CCCc2ccccc2)c1
inactive: dose: 1.56 mg/kg/injection, schedule: Q01DX001 (ip), vehicle: saline 98 % of control | dose: 3.12 mg/kg/injection, schedule: Q01DX001 (ip), vehicle: saline 91 % of control | dose: 6.25 mg/kg/injection, schedule: Q01DX001 (ip), vehicle: saline 88 % of control | dose: 25.0 mg/kg/injection, schedule: Q01DX001 (ip), vehicle: saline 89 % of control

O=[N+]([O-])c1cc(C(F)(F)F)cc([N+](=O)[O-])c1N/N=C/c1ccccc1Cl
inactive: [2] 91 % of control | [3] 95 % of control | [12] 90 % of control

Cc1c[n+](=O)c(C)cn1[O-]
inactive: [9] 97 % of control | [10] 100 % of control | [11] 103 % of control

CC(C)(SCc1ccc([N+](=O)[O-])cc1)C(N)C(=O)O (configuration not stated)
inactive: [14] 101 % of control | [16] 100 % of control | [18] 91 % of control

CN(CCC#N)c1ccc(C=C(C#N)C#N)cc1
inactive: [13] 92 % of control | [15] 95 % of control | [17] 97 % of control

OCC1OC(n2cnc3c(NO)ncnc32)CC1O (configuration not stated)
inactive: dose: 50.0 mg/kg/injection, schedule: Q01DX001 (ip), vehicle: carboxymethylcellulose (CMC) 102 % of control | [19] 109 % of control | [20] 109 % of control | [21] 109 % of control

CCOc1ccc(-c2nnc(Nc3ccc(S(=O)(=O)N4CCCCC4)cc3)s2)cc1
inactive: [2] 87 % of control | dose: 100.0 mg/kg/injection, schedule: Q04DX002 (ip), vehicle: saline with Tween-80 96 % of control | dose: 200.0 mg/kg/injection, schedule: Q04DX002 (ip), vehicle: saline with Tween-80 93 % of control | dose: 400.0 mg/kg/injection, schedule: Q04DX002 (ip), vehicle: saline with Tween-80 90 % of control

O=C(NCC[N+](=O)[O-])c1ccccc1
inactive: dose: 50.0 mg/kg/injection, schedule: Q01DX009 (ip), vehicle: saline 97 % of control | [4] 93 % of control | [5] 92 % of control | [6] 95 % of control | [7] 96 % of control | [8] 100 % of control

C/C(=N/NC(N)=S)c1ccco1
inactive: [10] 119 % of control | [11] 102 % of control
